Laboratory results published in ChEMBL document CHEMBL1124638, “2,4-Diamino-5-benzylpyrimidines and analogues as antibacterial agents. 10. 2,4-Diamino-5-(6-quinolylmethyl)- and -[(tetrahydro-6-quinolyl)methyl]pyrimidine derivatives. Further specificity studies” (J Med Chem, 1989).
In brackets after ≈: the same amount, converted by molar mass.

Assays:
Klebsiella pneumoniae = assay: Comparative in vitro antibacterial activity with trimethoprim against Klebsiella pneumoniae CN3632; format: functional
Streptococcus agalactiae = assay: Comparative in vitro antibacterial activity with trimethoprim against Streptococcus agalactiae CN1143; format: functional
[1] = Comparative in vitro antibacterial activity with trimethoprim against Salmonella typhi CN512; format: functional, salmonella typhosa
[2] = system: Mycolicibacterium smegmatis; assay: Comparative in vitro antibacterial activity with trimethoprim against Mycobacterium smegmatis S 3254; format: functional
Streptococcus pyogenes = assay: Comparative in vitro antibacterial activity of compound with trimethoprim against Streptococcus pyogenes CN10; format: functional
Pasteurella multocida = assay: Comparative in vitro antibacterial activity with trimethoprim against Pasteurella multocida ATCC 6587; format: functional
Escherichia coli = assay: Comparative in vitro antibacterial activity with trimethoprim against Escherichia coli CN314; format: functional
Enterococcus faecalis = assay: Comparative in vitro antibacterial activity with trimethoprim against Streptococcus faecalis CN478; format: functional
Vibrio cholerae = assay: Comparative in vitro antibacterial activity with trimethoprim against Vibrio cholerae ATCC 14035; format: functional
Staphylococcus aureus = assay: Comparative in vitro antibacterial activity with trimethoprim against Staphylococcus aureus CN491; format: functional
Klebsiella aerogenes = assay: Comparative in vitro antibacterial activity with trimethoprim against Enterobacter aerogenes 2200/86; format: functional
[3] = system: Bordetella bronchiseptica; assay: Comparative in vitro antibacterial activity with trimethoprim against Bordetella bronchiseptica CN385; format: functional
Shigella flexneri = assay: Comparative in vitro antibacterial activity with trimethoprim against Shigella flexneri CN6007; format: functional
Serratia marcescens = assay: Comparative in vitro antibacterial activity with trimethoprim against Serratia marcescens CN2398; format: functional
Citrobacter freundii = assay: Comparative in vitro antibacterial activity with trimethoprim against Citrobacter freundii 2200/77; format: functional
Dihydrofolate reductase [4] = target: T1, Dihydrofolate reductase (Rattus norvegicus, UniProt Q920D2); assay: Inhibitory activity against dihydrofolate reductase in rat liver; conditions: read-out: I50
T1 sequence (Q920D2 whole entry): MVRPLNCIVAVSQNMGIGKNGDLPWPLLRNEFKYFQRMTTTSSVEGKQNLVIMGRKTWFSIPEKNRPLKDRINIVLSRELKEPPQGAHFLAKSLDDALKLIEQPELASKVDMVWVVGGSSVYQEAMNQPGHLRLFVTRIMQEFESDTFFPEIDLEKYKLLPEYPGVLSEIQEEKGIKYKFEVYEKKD

Dihydrofolate reductase [5] = target: Dihydrofolate reductase (Neisseria gonorrhoeae, UniProt P04174); assay: Inhibitory activity against Dihydrofolate reductase in Neisseria gonorrhoeae; conditions: read-out: I50
Dihydrofolate reductase (Neisseria gonorrhoeae, UniProt P04174), sequence (P04174 whole entry): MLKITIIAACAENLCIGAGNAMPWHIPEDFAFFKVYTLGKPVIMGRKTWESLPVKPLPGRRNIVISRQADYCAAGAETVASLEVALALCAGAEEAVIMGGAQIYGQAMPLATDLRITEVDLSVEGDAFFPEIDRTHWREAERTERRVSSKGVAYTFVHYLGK

Proteus mirabilis = assay: Comparative in vitro antibacterial activity with trimethoprim against Proteus mirabilis S2409; format: functional
Proteus vulgaris = assay: Comparative in vitro antibacterial activity with trimethoprim against Proteus vulgaris CN329; format: functional
Salmonella typhimurium = assay: Comparative in vitro antibacterial activity with trimethoprim against Salmonella Typhimurium S 8587; format: functional, Salmonella enterica subsp. enterica serovar Typhimurium; conditions: Salmonella enterica

| Compound | MIC (Klebsiella pneumoniae) [µg/mL] | MIC (Streptococcus agalactiae) [µg/mL] | MIC [1] [µg/mL] | MIC [2] [µg/mL] | MIC (Streptococcus pyogenes) [µg/mL] | MIC (Pasteurella multocida) [µg/mL] | MIC (Escherichia coli) [µg/mL] | MIC (Enterococcus faecalis) [µg/mL] | MIC (Vibrio cholerae) [µg/mL] | MIC (Staphylococcus aureus) [µg/mL] | MIC (Klebsiella aerogenes) [µg/mL] | MIC [3] [µg/mL] | MIC (Shigella flexneri) [µg/mL] | MIC (Serratia marcescens) [µg/mL] | MIC (Citrobacter freundii) [µg/mL] | IC50 (Dihydrofolate reductase [4]) [µM] | IC50 (Dihydrofolate reductase [5]) [µM] | MIC (Proteus mirabilis) [µg/mL] | MIC (Proteus vulgaris) [µg/mL] | MIC (Salmonella typhimurium) [µg/mL] |
| --- | --- | --- | --- | --- | --- | --- | --- | --- | --- | --- | --- | --- | --- | --- | --- | --- | --- | --- | --- | --- |
| COc1cc(Cc2cnc(N)nc2N)cc2c1NCC(CO)C2 (stereo not given) | 10 (≈ 31.7 µM) | 10 (≈ 31.7 µM) | 10 (≈ 31.7 µM) | 10 (≈ 31.7 µM) | 10 (≈ 31.7 µM) | 30 (≈ 95.1 µM) | 10 (≈ 31.7 µM) | 3 (≈ 9.51 µM) | 3 (≈ 9.51 µM) | 3 (≈ 9.51 µM) | 30 (≈ 95.1 µM) | 30 (≈ 95.1 µM) | 30 (≈ 95.1 µM) | > 10 | 30 (≈ 95.1 µM) | 64 | 0.41 | > 30 | 100 (≈ 317 µM) | 10 (≈ 31.7 µM) |
| COc1cc(Cc2cnc(N)nc2N)cc2c1NCCC2 | 3 (≈ 10.5 µM) | 3 (≈ 10.5 µM) | 3 (≈ 10.5 µM) | 1 (≈ 3.5 µM) | 3 (≈ 10.5 µM) | 3 (≈ 10.5 µM) | 10 (≈ 35 µM) | 3 (≈ 10.5 µM) | 1 (≈ 3.5 µM) | 3 (≈ 10.5 µM) | 3 (≈ 10.5 µM) | 1 (≈ 3.5 µM) | 10 (≈ 35 µM) | 3 (≈ 10.5 µM) | 10 (≈ 35 µM) | 76 | 0.51 | 3 (≈ 10.5 µM) | 3 (≈ 10.5 µM) | 3 (≈ 10.5 µM) |
| CCc1cc(Cc2cnc(N)nc2N)cc2c1N(C)CCC2C (stereo not given) | 3 (≈ 9.63 µM) | 1 (≈ 3.21 µM) | 10 (≈ 32.1 µM) | 3 (≈ 9.63 µM) | 1 (≈ 3.21 µM) | 3 (≈ 9.63 µM) | 3 (≈ 9.63 µM) | 0.03 (≈ 0.0963 µM) | 3 (≈ 9.63 µM) | 0.03 (≈ 0.0963 µM) | 1 (≈ 3.21 µM) | 1 (≈ 3.21 µM) | 10 (≈ 32.1 µM) | 3 (≈ 9.63 µM) | 3 (≈ 9.63 µM) | 44 | 0.3 | 3 (≈ 9.63 µM) | 10 (≈ 32.1 µM) | 1 (≈ 3.21 µM) |
| COc1cc(Cc2cnc(N)nc2N)cc2c1NCC(COC(C)=O)C2 (stereo not given) | 100 (≈ 280 µM) | 10 (≈ 28 µM) | 30 (≈ 83.9 µM) | 30 (≈ 83.9 µM) | 3 (≈ 8.39 µM) | 30 (≈ 83.9 µM) | 30 (≈ 83.9 µM) | 3 (≈ 8.39 µM) | 10 (≈ 28 µM) | 10 (≈ 28 µM) | 30 (≈ 83.9 µM) | 10 (≈ 28 µM) | 30 (≈ 83.9 µM) | > 10 | 30 (≈ 83.9 µM) | 61 | 0.16 | 30 (≈ 83.9 µM) | 30 (≈ 83.9 µM) | 30 (≈ 83.9 µM) |
| CCN1CC(CO)Cc2cc(Cc3cnc(N)nc3N)cc(OC)c21 (stereo not given) | 30 (≈ 87.4 µM) | 30 (≈ 87.4 µM) | 100 (≈ 291 µM) | 100 (≈ 291 µM) | 10 (≈ 29.1 µM) | 100 (≈ 291 µM) | 100 (≈ 291 µM) | 3 (≈ 8.74 µM) | 100 (≈ 291 µM) | 10 (≈ 29.1 µM) | 10 (≈ 29.1 µM) | 30 (≈ 87.4 µM) | 100 (≈ 291 µM) | > 10 | 100 (≈ 291 µM) | 440 | 2.6 | > 30 | > 100 | 30 (≈ 87.4 µM) |
